The values below are quoted from earlier work in patent US6528705B1, “Method for improving productivity of higher plants” (Nara Institute of Science and Technology, priority 1999, dated 2003).

Each structure is given as a SMILES string. Read-outs that look alike come from different tables or passages of the source.

As usually defined, the Ki is the dissociation constant of the complex between target and ligand, obtained from inhibition or displacement. A word on the Km: it is the substrate concentration at which the rate is half of its maximum.

The subject of data set [1] is Synechococcus PCC 7942 FBPase-I (fructose-1,6-bisphosphatase/sedoheptulose-1,7-bisphosphatase, FBPase/SBPase), wild type, sequence number 1. To be noted: after the treatment by 1 mM H2O2; purified enzyme.
Data set [2] has as its target Synechococcus PCC 7942 FBPase-I (fructose-1,6-bisphosphatase/sedoheptulose-1,7-bisphosphatase, FBPase/SBPase), wild type, sequence number 1.
Data set [3] concerns Synechococcus PCC 7942 FBPase-I (fructose-1,6-bisphosphatase/sedoheptulose-1,7-bisphosphatase, FBPase/SBPase), wild type, sequence number 1. The settings on record: purified enzyme.

As to `OO` [H2O2], in data set [1], the “native enzyme activity retained” value was “more than 80%”.
Regarding `Nc1ncnc2c1ncn2[C@@H]1O[C@H](COP(=O)(O)O)[C@@H](O)[C@H]1O` [AMP], the Ki in data set [2] (inhibition of the enzyme activity by AMP) was 260 µM.
Take `O=P(O)(O)OC[C@@H](O)[C@H]1OC(O)(COP(=O)(O)O)[C@@H](O)[C@@H]1O` (some centres unmarked) [Sed1,7-P2, sedoheptulose-1,7-bisphosphate]: the Km in data set [3] (substrate Sed1,7-P2, read-out: Km for Sed1,7-P2) was 118 µM.
In the case of `O=P(O)(O)OC[C@H]1OC(O)(COP(=O)(O)O)[C@@H](O)[C@@H]1O` (some centres unmarked) [Fru1,6-P2, fructose-1,6-bisphosphate], in data set [3] (substrate Fru1,6-P2, read-out: Km for Fru1,6-P2), the Km was 52 µM.
Consider `O=P(O)(O)OC[C@H]1O[C@@](CO)(OP(=O)(O)O)[C@@H](O)[C@@H]1O` [fructose-2,6-P2], for which the “inhibition of enzyme activity” value in data set [2] (fructose-2,6-P2, concentration not given) is “not inhibited”.
